Activity calls are given as the source filed them.
Legend:
[1] = target: Glyceraldehyde-3-phosphate dehydrogenase (Homo sapiens, UniProt P04406)
[2] = target: T1, Alkaline phosphatase, tissue-nonspecific isozyme (Homo sapiens, UniProt P05186); assay: potency against alkaline phosphatase TNAP – biochemical, luminescent, dose response, SAR follow-up (AID 1056)
T1 sequence (P05186 whole entry): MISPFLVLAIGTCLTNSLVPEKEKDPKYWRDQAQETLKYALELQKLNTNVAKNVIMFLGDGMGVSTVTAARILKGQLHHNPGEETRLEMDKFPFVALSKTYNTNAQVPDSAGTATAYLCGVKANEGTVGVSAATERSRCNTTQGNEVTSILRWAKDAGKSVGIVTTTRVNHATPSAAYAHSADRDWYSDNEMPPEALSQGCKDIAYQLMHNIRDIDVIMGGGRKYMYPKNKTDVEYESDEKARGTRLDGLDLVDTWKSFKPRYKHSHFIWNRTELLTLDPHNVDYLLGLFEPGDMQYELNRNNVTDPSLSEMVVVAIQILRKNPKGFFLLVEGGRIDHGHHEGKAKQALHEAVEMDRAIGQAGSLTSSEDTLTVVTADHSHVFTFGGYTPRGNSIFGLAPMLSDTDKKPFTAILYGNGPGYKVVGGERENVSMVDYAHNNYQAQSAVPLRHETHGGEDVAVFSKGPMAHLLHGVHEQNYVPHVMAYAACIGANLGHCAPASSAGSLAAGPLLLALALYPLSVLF

Leucine aminopeptidase = target: T2, Leucine aminopeptidase (Plasmodium falciparum 3D7, UniProt Q8IL11); assay: P. falciparum M17LAP inhibitors, primary screen, biochemical, fluorogenic H-Leu-NHMec substrate, 1536-well (AID 1619); format: functional
T2 sequence (Q8IL11 whole entry): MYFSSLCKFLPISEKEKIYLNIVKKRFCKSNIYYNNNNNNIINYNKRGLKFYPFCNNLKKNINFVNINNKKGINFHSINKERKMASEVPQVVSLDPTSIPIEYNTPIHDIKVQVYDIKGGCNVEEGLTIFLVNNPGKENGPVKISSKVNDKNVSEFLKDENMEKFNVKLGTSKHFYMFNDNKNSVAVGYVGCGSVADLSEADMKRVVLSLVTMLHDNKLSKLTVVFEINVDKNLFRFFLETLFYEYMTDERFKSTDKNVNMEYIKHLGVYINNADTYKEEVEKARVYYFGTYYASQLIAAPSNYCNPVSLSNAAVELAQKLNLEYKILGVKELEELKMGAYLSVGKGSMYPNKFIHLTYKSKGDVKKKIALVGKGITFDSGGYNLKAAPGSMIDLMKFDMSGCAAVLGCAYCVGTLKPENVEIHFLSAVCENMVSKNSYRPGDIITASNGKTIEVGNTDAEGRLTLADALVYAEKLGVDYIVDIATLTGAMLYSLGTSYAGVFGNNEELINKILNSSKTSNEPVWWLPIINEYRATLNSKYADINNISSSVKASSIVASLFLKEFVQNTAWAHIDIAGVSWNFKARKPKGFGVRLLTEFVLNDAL

[3] = HEK-293T viability loss after treatment – luminescence, T-cell screen hits, cytotoxicity control for TCR NF-kB inhibitor project, dose response (AID 489026); format: functional, cell-based;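 note: cells exposed to compound about 14 hours before the viability readout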
cells [4] = format: functional, cell-based
cells [5] = format: functional, cell-based; remark: listed apart in the source
Cytochrome P450 2C9 = Cytochrome P450 2C9 (Homo sapiens, UniProt P11712)
Sequence of Cytochrome P450 2C9 (P11712 whole entry): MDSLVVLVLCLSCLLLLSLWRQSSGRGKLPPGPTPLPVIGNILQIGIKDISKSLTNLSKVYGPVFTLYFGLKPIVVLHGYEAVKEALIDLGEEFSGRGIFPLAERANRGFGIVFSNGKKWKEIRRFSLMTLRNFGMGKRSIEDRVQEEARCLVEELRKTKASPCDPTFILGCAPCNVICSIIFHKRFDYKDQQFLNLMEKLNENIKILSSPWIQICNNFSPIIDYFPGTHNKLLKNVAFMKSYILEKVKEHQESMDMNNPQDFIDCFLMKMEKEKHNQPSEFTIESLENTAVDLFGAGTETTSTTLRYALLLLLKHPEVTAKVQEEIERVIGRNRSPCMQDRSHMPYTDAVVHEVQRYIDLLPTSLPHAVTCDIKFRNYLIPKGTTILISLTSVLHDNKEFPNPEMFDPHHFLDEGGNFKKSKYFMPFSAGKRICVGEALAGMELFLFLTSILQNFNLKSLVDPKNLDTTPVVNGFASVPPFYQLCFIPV

Cytochrome P450 3A4 = Cytochrome P450 3A4 (Homo sapiens, UniProt P08684);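 note: CYP3A4 tested as one member of a cytochrome P450 panel screen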
Sequence of Cytochrome P450 3A4 (P08684 whole entry): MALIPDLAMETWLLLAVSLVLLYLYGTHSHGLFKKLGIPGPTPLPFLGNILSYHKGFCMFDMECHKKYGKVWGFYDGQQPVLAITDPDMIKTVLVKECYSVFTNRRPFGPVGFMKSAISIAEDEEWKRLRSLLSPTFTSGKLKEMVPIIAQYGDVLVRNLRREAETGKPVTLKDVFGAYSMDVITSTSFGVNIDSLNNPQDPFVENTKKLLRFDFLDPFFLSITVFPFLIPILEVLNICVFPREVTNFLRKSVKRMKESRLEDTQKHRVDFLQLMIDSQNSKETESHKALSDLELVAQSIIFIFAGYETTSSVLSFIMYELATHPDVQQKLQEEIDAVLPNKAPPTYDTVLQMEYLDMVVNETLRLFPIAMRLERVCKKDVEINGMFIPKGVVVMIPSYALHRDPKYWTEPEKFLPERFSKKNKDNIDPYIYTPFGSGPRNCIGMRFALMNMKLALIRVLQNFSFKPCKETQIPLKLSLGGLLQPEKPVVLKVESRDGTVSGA

Cytochrome P450 2C19 = Cytochrome P450 2C19 (Homo sapiens, UniProt P33261); assay: Cytochrome panel assay with activity outcomes. Panel member name: p450-cyp2c19 Compounds with AC50 equal or less than 10 uM are considered active; format: functional; settings: read-out: AC50
Sequence of Cytochrome P450 2C19 (P33261 whole entry): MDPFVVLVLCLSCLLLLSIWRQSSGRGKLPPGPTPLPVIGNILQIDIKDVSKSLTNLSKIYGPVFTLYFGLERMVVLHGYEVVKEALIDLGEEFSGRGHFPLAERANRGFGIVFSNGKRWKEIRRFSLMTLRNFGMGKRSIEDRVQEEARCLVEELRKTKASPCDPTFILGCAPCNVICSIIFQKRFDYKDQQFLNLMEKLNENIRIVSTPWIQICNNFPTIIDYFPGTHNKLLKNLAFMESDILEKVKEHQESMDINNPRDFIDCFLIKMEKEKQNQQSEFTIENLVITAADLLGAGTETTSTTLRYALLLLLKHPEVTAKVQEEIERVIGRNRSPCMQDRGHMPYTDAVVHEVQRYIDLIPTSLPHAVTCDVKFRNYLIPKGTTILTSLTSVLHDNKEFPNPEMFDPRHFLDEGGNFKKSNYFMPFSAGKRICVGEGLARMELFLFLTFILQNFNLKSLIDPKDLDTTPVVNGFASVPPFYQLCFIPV

Cytochrome P450 1A2 = target: T3, Cytochrome P450 1A2 (Homo sapiens, UniProt P05177);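 note: PubChem cytochrome P450 panel assay, CYP1A2 panel member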
T3 sequence (P05177 whole entry): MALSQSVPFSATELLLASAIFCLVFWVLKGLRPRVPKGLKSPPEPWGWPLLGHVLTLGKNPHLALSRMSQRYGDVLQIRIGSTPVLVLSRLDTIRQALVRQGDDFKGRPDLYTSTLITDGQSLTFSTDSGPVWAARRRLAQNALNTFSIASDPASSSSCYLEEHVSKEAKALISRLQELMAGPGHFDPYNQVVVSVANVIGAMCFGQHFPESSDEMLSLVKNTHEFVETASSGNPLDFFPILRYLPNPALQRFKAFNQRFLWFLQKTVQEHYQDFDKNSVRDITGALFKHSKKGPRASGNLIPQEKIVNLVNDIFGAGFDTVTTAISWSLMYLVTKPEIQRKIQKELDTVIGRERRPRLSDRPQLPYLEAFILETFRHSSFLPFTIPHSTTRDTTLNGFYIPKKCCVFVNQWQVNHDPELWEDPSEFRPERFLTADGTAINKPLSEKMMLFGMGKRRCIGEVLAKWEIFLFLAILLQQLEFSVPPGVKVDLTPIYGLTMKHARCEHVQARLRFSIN

Streptokinase A = target: T4, Streptokinase A (Streptococcus pyogenes serotype M1, UniProt P10520); assay: viability-normalized secreted streptokinase activity reduction – plasminogen activation absorbance, OD405, dose response (AID 1914); format: functional, Streptococcus pyogenes M1 GAS;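 note: secreted streptokinase activity via plasminogen activation per viability signal from cell pellet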
T4 sequence (P10520 whole entry): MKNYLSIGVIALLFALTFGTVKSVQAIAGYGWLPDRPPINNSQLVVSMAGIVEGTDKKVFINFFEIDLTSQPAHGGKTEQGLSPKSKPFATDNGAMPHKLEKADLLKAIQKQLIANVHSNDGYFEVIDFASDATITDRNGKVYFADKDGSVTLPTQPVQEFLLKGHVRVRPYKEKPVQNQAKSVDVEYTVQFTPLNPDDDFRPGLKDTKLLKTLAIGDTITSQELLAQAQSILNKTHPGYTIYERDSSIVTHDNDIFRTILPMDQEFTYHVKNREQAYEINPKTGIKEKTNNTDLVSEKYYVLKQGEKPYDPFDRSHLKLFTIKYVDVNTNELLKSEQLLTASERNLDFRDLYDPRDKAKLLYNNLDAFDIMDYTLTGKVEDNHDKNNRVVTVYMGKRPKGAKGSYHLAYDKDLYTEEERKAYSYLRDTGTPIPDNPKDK

[6] = target: T5, Short transient receptor potential channel 4 (Mus musculus, UniProt Q9QUQ5); assay: block of DAMGO-driven TRPC4 calcium entry – cell-based, HEK293 TRPC4/mu-opioid, Fluo-4 calcium, dose response (AID 434942); format: functional;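 note: potency of inhibitors blocking the TRPC4 calcium response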
T5 sequence (Q9QUQ5 whole entry): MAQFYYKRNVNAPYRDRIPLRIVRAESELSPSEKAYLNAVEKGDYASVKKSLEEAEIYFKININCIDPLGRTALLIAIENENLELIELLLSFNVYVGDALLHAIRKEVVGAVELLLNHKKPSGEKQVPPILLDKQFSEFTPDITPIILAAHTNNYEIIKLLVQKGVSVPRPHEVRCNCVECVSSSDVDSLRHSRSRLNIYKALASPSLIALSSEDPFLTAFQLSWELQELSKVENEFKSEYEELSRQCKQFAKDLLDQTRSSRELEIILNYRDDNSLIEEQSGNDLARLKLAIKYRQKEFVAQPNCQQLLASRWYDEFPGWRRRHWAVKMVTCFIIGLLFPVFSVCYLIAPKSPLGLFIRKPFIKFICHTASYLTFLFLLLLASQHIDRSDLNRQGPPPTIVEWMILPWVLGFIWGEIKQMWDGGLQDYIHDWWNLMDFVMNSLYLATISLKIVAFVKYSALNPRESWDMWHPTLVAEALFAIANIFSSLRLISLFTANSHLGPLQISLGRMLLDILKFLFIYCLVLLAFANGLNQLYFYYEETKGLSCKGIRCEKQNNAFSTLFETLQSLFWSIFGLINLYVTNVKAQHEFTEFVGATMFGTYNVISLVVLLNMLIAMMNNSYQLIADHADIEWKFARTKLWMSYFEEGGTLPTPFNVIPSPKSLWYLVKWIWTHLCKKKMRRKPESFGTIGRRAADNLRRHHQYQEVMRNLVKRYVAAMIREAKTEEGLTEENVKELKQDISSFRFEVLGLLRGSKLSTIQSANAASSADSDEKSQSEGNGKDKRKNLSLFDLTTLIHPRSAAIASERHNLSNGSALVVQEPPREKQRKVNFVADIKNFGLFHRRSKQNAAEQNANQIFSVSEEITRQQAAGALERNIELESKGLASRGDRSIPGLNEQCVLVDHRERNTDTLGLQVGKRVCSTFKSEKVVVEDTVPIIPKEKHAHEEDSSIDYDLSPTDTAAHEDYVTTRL

[7] = target: T6, Histone-lysine N-methyltransferase NSD2 (Homo sapiens, UniProt O96028); format: biochemical
T6 sequence (O96028 whole entry): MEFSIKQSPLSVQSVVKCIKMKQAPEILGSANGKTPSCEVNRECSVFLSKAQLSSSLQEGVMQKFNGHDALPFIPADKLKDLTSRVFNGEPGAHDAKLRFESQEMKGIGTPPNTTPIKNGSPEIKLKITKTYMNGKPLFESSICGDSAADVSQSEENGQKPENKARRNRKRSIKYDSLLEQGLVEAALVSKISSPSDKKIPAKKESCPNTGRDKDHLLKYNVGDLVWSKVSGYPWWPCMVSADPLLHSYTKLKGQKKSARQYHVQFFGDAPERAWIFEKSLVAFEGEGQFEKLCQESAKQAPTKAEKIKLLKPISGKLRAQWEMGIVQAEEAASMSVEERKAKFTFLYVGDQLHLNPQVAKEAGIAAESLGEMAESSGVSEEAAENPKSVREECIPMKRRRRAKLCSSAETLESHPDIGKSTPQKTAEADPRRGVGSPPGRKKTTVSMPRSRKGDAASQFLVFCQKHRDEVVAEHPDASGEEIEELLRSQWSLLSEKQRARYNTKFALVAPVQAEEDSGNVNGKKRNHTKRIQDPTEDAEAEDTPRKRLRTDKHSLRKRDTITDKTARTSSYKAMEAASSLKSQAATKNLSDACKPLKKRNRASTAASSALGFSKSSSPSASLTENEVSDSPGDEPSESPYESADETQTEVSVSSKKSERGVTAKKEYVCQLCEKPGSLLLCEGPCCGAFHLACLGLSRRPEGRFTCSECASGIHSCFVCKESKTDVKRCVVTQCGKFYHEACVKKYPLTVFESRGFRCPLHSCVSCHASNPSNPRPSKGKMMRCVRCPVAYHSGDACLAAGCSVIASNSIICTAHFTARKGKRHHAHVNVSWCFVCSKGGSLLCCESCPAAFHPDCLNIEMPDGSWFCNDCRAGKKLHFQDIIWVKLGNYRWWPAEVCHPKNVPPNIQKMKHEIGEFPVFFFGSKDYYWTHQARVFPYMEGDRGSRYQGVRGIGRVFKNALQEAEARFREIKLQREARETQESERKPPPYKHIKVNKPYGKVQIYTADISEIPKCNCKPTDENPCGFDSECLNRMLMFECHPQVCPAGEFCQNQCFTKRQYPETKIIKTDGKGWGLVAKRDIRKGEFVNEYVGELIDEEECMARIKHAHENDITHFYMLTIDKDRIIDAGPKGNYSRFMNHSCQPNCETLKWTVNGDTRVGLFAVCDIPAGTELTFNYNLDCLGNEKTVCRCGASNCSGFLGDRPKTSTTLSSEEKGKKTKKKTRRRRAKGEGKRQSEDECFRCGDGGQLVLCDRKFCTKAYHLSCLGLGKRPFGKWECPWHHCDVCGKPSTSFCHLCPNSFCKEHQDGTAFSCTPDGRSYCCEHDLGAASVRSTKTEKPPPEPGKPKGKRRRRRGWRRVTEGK

[8] = A549 cell cytotoxicity, dose response, cytotoxicity control, plate reader, cherry-pick, antagonist series (AID 743412); format: functional, cell-based
[9] = Trypanosoma cruzi growth suppression in host cells – NIH3T3 host cells, beta-gal luminescence, confirmation (AID 2044); format: functional, cell-based;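 note: intracellular parasites grown in NIH/3T3 mouse fibroblasts as host cells; luminescent beta-galactosidase reporter signal from transgenic T. cruzi replicating inside host cells; inhibitors lower the luminescence signal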
[10] = NIH3T3 cell viability loss – ATP luminescence, mouse fibroblasts, counter-screen, dose response (AID 2010); format: functional, cell-based;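 note: cells exposed to compound for about 90 hours before reading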

Sequence of Glyceraldehyde-3-phosphate dehydrogenase (P04406 whole entry): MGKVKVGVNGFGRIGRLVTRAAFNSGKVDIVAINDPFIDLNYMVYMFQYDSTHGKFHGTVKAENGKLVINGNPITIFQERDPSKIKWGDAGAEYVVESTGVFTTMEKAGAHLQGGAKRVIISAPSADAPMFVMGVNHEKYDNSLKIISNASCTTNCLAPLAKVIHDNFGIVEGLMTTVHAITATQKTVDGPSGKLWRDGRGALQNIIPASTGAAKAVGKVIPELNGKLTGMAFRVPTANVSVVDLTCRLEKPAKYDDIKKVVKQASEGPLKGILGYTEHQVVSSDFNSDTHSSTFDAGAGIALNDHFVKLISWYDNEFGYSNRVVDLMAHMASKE

For `CCc1ccc(-c2cc(C(=O)O)[nH]n2)cc1`, the IC50 [1] was > 100 µM (not active) and the IC50 [2] was 17.6 µM (active).
For `Cc1cc(C(=O)OCC(=O)N2C(C)CCCC2C)c(C)o1` (stereo not drawn), the IC50 (Leucine aminopeptidase) was 14.3 µM (active).
With `CC(C)Nc1ccc(C(CC(N)=O)NC(=O)c2ccc(Br)cc2)cc1[N+](=O)[O-]` (stereo not drawn) the IC50 [3] was > 80 µM (inactive).
For `COc1ccc(Cl)c(OC)c1C(=O)NC(=O)Nc1c(F)cc(F)cc1F`, the EC50 (cells [4]) was > 350 µM (not active) and the EC50 (cells [5]) was > 350 µM (not active).
In the case of `C[C@H]1CCCC=CC2C[C@H](OC(=O)CN(C)C)C[C@@H]2[C@@H](O)/C=C\C(=O)O1` (stereo partly drawn), the AC50 (Cytochrome P450 2C9) was “inconclusive” and the AC50 (Cytochrome P450 3A4) was “inconclusive”.
In the case of `O=C(Oc1ccccc1)N1CCC2(CC1)CN(c1ccccc1)C2`, the AC50 (Cytochrome P450 2C19) was 15.8 µM (inconclusive), the AC50 (Cytochrome P450 1A2) was 15.8 µM (inconclusive) and the AC50 (Cytochrome P450 3A4) was “inconclusive”.
In the case of `COc1ccc(N2CCN(C(=O)C3COc4ccccc4O3)CC2)cc1` (stereo not drawn), the EC50 (cells [4]) was > 350 µM (not active) and the EC50 (cells [5]) was > 350 µM (not active).
For `O=C(CCNC(=O)Cn1ccc2ccccc2c1=O)NCCCN1CCN(c2ccc(F)cc2)CC1`, the AC50 (Cytochrome P450 3A4) was “inconclusive”.
For `CC1=C(C)CC(C(=O)Nc2nc(-c3ccc(C)cc3C)c(C)s2)C(C(=O)O)C1` (stereo not drawn), the IC50 (Leucine aminopeptidase) was 3.71 µM (active).
For `COC(=O)C1Nc2cc(C(F)(F)F)ccc2S(=O)(=O)N1` (stereo not drawn), the IC50 [1] was > 100 µM (not active).
With `COc1ccc(NC(=O)N2CCC3(CC2)CCN(C(=O)c2cccn2C)CC3)cc1` the AC50 (Cytochrome P450 3A4) was “inconclusive”.
For `CN(C(=O)CSc1nc(-c2ccc(C(C)(C)C)cc2)c(C#N)c(=O)[nH]1)C1CCCCC1`, the EC50 (Streptokinase A) was > 150 µM (not active), the EC50 [6] was 9.44 µM (active) and the AC50 [7] was 12.6 µM (active).
For `CC(C)N(C(C)C)S(=O)(=O)c1ccc(N2CCc3ccccc3C2)nc1`, the EC50 (cells [4]) was > 350 µM (not active) and the EC50 (cells [5]) was > 350 µM (not active).
For `CCN(CC)CCNC(=O)c1cc2cc(Br)ccc2s1`, the AC50 [7] was > 20 µM (inactive).
For `C[C@@H]1CN([C@@H](C)CO)S(=O)(=O)c2ccc(C3=CCCC3)cc2O[C@H]1CN(C)C(=O)c1ccccc1`, the AC50 [8] was 38.9 µM (active).
With `CN1/C(=C\C(=O)C[n+]2ccc3ccccc3c2)C(C)(C)c2ccccc21` the IC50 [3] was > 80 µM (inactive), the EC50 [9] was 0.505 µM (active) and the EC50 [6] was 5.31 µM (active). The EC50 [10] was > 60 µM (not active).
